Reference: PubChem BioAssay AID2060909 (Molecular Pharmacology Branch, DTP, NCI, 2025)

Tested on: 362531-283-R-J2-PDC complex spheroid viability
Assay: Anticancer human tumor 362531-283-R-J2-PDC patient-derived colon adenocarcinoma cell line growth inhibition [RAS]
Settings: for IC50: curve of first compound; for viability, T/C: stronger effect = lower value; active means viability on the fitted dose curve at most 10% of control; inactive means the rest
Procedure, shortened: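 Agents were tested in combination matrices in half-log decrements from a top concentration at or near clinical Cmax (10 microM if undetermined). Targets were multi-cell spheroids of tumour lines plus HUVEC and MSC stromal cells.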

[1] = second compound 0.000949 µM, first compound 0.0316 µM
[2] = second compound 0.000949 µM, first compound 0.1 µM
[3] = second compound 0.000949 µM, first compound 0.316 µM
[4] = second compound 0.000949 µM, first compound 1 µM
[5] = second compound 0.000949 µM, first compound 3.16 µM
[6] = second compound 0.000949 µM, first compound 10 µM
[7] = second compound 0.003 µM, first compound 0.0316 µM
[8] = second compound 0.003 µM, first compound 0.1 µM
[9] = second compound 0.003 µM, first compound 0.316 µM
[10] = second compound 0.003 µM, first compound 1 µM
[11] = second compound 0.003 µM, first compound 3.16 µM
[12] = second compound 0.003 µM, first compound 10 µM
[13] = second compound 0.00949 µM, first compound 0.0316 µM
[14] = second compound 0.00949 µM, first compound 0.1 µM
[15] = second compound 0.00949 µM, first compound 0.316 µM
[16] = second compound 0.00949 µM, first compound 1 µM
[17] = second compound 0.00949 µM, first compound 3.16 µM
[18] = second compound 0.00949 µM, first compound 10 µM
[19] = second compound 0.03 µM, first compound 0.0316 µM
[20] = second compound 0.03 µM, first compound 0.1 µM
[21] = second compound 0.03 µM, first compound 0.316 µM
[22] = second compound 0.03 µM, first compound 1 µM
[23] = second compound 0.03 µM, first compound 3.16 µM
[24] = second compound 0.03 µM, first compound 10 µM
[25] = second compound 0.0949 µM, first compound 0.0316 µM
[26] = second compound 0.0949 µM, first compound 0.1 µM
[27] = second compound 0.0949 µM, first compound 0.316 µM
[28] = second compound 0.0949 µM, first compound 1 µM
[29] = second compound 0.0949 µM, first compound 3.16 µM
[30] = second compound 0.0949 µM, first compound 10 µM
[31] = second compound 0.3 µM, first compound 0.0316 µM
[32] = second compound 0.3 µM, first compound 0.1 µM
[33] = second compound 0.3 µM, first compound 0.316 µM
[34] = second compound 0.3 µM, first compound 1 µM
[35] = second compound 0.3 µM, first compound 3.16 µM
[36] = second compound 0.3 µM, first compound 10 µM
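Further: spheroids exposed to the agents for 7 days before readout.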
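Wherever viability, T/C is given: luminescence viability as percent of DMSO vehicle control wells.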

Cc1nc(N2CCC3(CC2)COC(C)C3N)c(CO)nc1Sc1ccnc(N)c1Cl (centres undefined) + CCn1c(-c2cc(N3CCN(C)CC3)cnc2C(C)OC)c2c3cc(ccc31)-c1csc(n1)CC(NC(=O)C1CC1C)C(=O)N1CCCC(N1)C(=O)OCC(C)(C)C2
> 10000 nM: IC50 (second compound 0.000949 µM) | IC50 (second compound 0.003 µM)
7340 nM: IC50 (second compound 0.00949 µM)
1870 nM: IC50 (second compound 0.03 µM)
529 nM: IC50 (second compound 0.0949 µM)
< 31.6 nM: IC50 (second compound 0.3 µM)
active: viability, T/C [24] 7.23% | viability, T/C [29] 8.1% | viability, T/C [30] 4.24% | viability, T/C [34] 6.49% | viability, T/C [35] 5.54% | viability, T/C [36] 3.65%
inactive: viability, T/C [1] 95.4% | viability, T/C [2] 122% | viability, T/C [3] 89% | viability, T/C [4] 93.7% | viability, T/C [5] 86.4% | viability, T/C [6] 70.5% | viability, T/C [7] 103% | viability, T/C [8] 113% | viability, T/C [9] 94.8% | viability, T/C [10] 89.6% | viability, T/C [11] 92.8% | viability, T/C [12] 72.4% | viability, T/C [13] 104% | viability, T/C [14] 113% | viability, T/C [15] 84.7% | viability, T/C [16] 88.9% | viability, T/C [17] 88% | viability, T/C [18] 37.1% | viability, T/C [19] 102% | viability, T/C [20] 104% | viability, T/C [21] 74.3% | viability, T/C [22] 68.9% | viability, T/C [23] 36.9% | viability, T/C [25] 77.7% | viability, T/C [26] 77% | viability, T/C [27] 65.2% | viability, T/C [28] 30.9% | viability, T/C [31] 47.3% | viability, T/C [32] 37.8% | viability, T/C [33] 18.9%

NC1c2ccccc2OC12CCN(c1cnc3c(N4CCCc5ncccc54)n[nH]c3n1)CC2 (centres undefined) + CCn1c(-c2cc(N3CCN(C)CC3)cnc2C(C)OC)c2c3cc(ccc31)-c1csc(n1)CC(NC(=O)C1CC1C)C(=O)N1CCCC(N1)C(=O)OCC(C)(C)C2
< 31.6 nM: IC50 (second compound 0.3 µM)
inactive: viability, T/C [1] 93% | viability, T/C [2] 97.3% | viability, T/C [3] 88% | viability, T/C [4] 75.2% | viability, T/C [5] 34.6% | viability, T/C [6] 15.8% | viability, T/C [7] 95.2% | viability, T/C [8] 90.3% | viability, T/C [9] 81.8% | viability, T/C [10] 50.8% | viability, T/C [11] 8.91% | viability, T/C [13] 91.7% | viability, T/C [14] 96.4% | viability, T/C [15] 67.1% | viability, T/C [16] 11% | viability, T/C [19] 94.4% | viability, T/C [20] 70.9% | viability, T/C [21] 13% | viability, T/C [25] 56.5% | viability, T/C [26] 25.1% | viability, T/C [31] 16.5%
active: viability, T/C [12] 4.54% | viability, T/C [17] 4.02% | viability, T/C [18] 2.36% | viability, T/C [22] 7.15% | viability, T/C [23] 5.36% | viability, T/C [24] 2.24% | viability, T/C [27] 6.77% | viability, T/C [28] 4.69% | viability, T/C [29] 4.6% | viability, T/C [30] 2.33% | viability, T/C [32] 9.81% | viability, T/C [33] 5.67% | viability, T/C [34] 4.89% | viability, T/C [35] 4.53% | viability, T/C [36] 2.17%
968 nM: IC50 (second compound 0.003 µM)
40.1 nM: IC50 (second compound 0.0949 µM)
152 nM: IC50 (second compound 0.03 µM)
450 nM: IC50 (second compound 0.00949 µM)
2040 nM: IC50 (second compound 0.000949 µM)
